According to publication PMC6934184, “Selective DNA-PKcs inhibition extends the therapeutic index of localized radiotherapy and chemotherapy” (The Journal of Clinical Investigation, 2019):

Target: T1, CSNK2A2 (CK2 alpha 2) (Homo sapiens, UniProt P19784)
T1 construct: purchased Thermo Fisher Scientific (Life Technologies) SelectScreen
Assay: SelectScreen Z'LYTE
Format: biochemical
Procedure, shortened: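 SelectScreen broad panel; activity (Z'LYTE, Adapta) plus binding formats. ATP: Km app for CSF1R Z'LYTE; 10 for CAMK1 Adapta. Readout = % per kinase.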

T1 sequence (P19784 whole entry): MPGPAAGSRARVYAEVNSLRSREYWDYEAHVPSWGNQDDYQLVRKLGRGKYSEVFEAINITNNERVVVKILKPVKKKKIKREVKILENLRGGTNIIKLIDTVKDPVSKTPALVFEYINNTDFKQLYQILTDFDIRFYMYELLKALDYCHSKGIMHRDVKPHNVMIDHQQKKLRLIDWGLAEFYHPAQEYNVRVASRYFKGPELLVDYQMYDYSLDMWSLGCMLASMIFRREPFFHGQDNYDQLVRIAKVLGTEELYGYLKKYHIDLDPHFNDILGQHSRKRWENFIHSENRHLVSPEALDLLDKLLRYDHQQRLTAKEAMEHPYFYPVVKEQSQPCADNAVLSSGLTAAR

Q: For CN(C(=O)CN1CCOCC1)c1ccc2sc3c(-c4cccc5c(=O)cc(N6CC7CCC(C6)O7)oc45)cccc3c2c1 [NU5455], which inhibition at 1 µM is on record?
A: Its inhibition at 1 µM is 8.7%.
